We go through 31 molecules from US20090069320A1, “Substituted 4-Amino-Quinazoline Compounds with Metabotropic Glutamate Receptor Regulating Activity and Uses Thereof” (Gruenenthal GmbH, priority 2006, published 2009).

As a reminder, the inhibition is the percentage by which the read-out fell short of the control.

In the experiment the target is T1, mGluR5 receptor (Sus scrofa, UniProt I3LUI7).
T1 construct: 450 μg of protein from brain homogenate with 5 nM ^3[H]-MPEP; from tissue; host or cells: pig brain halves without medulla, cerebellum and pons
T1 sequence (I3LUI7 19-1212): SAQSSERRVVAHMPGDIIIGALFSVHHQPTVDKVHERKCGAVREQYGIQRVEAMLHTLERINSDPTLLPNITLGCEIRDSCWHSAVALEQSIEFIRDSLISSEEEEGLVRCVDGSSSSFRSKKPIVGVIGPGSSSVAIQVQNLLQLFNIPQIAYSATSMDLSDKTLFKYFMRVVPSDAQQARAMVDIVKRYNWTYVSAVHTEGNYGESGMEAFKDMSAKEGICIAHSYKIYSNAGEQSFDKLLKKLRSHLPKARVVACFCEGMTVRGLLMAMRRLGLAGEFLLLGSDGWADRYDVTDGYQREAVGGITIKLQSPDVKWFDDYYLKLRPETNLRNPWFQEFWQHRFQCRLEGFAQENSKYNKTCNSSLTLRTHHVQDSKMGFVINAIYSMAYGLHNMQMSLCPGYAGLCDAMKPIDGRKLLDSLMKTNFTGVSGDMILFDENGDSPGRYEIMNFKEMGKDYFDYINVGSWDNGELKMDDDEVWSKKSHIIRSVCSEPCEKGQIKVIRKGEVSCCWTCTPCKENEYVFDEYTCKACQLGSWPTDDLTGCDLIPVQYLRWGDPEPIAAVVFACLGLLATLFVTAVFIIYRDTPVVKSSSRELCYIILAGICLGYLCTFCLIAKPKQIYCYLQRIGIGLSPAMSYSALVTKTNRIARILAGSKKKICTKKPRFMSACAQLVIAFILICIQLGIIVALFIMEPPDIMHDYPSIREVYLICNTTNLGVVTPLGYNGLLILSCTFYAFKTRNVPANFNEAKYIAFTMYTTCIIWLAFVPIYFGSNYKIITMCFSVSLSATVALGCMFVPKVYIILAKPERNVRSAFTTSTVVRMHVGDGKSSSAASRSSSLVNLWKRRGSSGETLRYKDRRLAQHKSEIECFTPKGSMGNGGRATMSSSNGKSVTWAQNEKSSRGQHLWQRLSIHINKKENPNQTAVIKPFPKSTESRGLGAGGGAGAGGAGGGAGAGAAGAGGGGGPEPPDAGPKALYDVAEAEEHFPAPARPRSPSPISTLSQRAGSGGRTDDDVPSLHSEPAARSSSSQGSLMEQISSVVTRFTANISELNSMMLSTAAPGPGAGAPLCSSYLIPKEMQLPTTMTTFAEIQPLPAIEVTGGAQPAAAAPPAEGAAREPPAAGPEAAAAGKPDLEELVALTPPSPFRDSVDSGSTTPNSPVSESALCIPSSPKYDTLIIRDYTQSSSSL
Description: [3H]-MPEP mGluR5 receptor binding assay (pig brain homogenate). The note with it: 10 μM compound, 5 nM [3H]-MPEP; for inhibition at 10 µM: read-out: % Inhibition of mGluR5 Receptor (pig) [^3H]-MPEP Bond at 10 μM. In outline: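 Radioligand displacement of 5 nM [3H]-MPEP from pig brain homogenate (450 μg protein; medulla, cerebellum and pons removed) in 20 mM Hepes pH 8.0. Compounds were tested at 10 μM, incubated 60 min at room temperature, then filtered and counted by scintillation. Non-specific binding was defined with 10 μM MPEP.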

For the molecule `O=C(c1ccc(F)cc1F)N(Cc1cc(-c2ccc3ncnc(NC4CC4)c3c2)ccc1Cl)C1CC1` [Example 792, N-(2-chloro-5-(4-(cyclopropylamino)quinazolin-6-yl)benzyl)-N-cyclopropyl-2,4-difluorobenzamide], the inhibition at 10 µM stood at 88%.
For `CCCCC(=O)N(Cc1cc(-c2ccc3ncnc(NC4CC4)c3c2)ccc1Cl)C1CC1` [Example 793, N-(2-chloro-5-(4-(cyclopropylamino)quinazolin-6-yl)benzyl)-N-cyclopropyl pentanamide], the “% Inhibition of mGluR5 Receptor (pig) [^3H]-MPEP Bond at 10 μM” value (from here on “% Inhibition of mGluR5 Receptor (pig)”) turned out to be 94%.
In the case of `O=S(=O)(c1ccc(Cl)cc1Cl)N(Cc1cc(-c2ccc3ncnc(NC4CC4)c3c2)ccc1Cl)C1CC1` [Example 794, 2,4-dichloro-N-(2-chloro-5-(4-(cyclopropylamino)quinazolin-6-yl)benzyl)-N-cyclopropyl benzole sulfonamide], the “% Inhibition of mGluR5 Receptor (pig)” value is recorded as 93%.
`O=C(c1cccc(F)c1)N(Cc1cc(-c2ccc3ncnc(NC4CC4)c3c2)ccn1)C1CC1` [Example 795, N-cyclopropyl-N-((4-(4-(cyclopropylamino)quinazolin-6-yl)pyridin-2-yl)methyl)-3-fluorobenzamide]: the inhibition at 10 µM amounted to 73%.
On to `O=S(=O)(c1ccc(Cl)cc1Cl)N(Cc1cc(-c2ccc3ncnc(NC4CC4)c3c2)ccn1)C1CC1` [Example 796, 2,4-dichloro-N-cyclopropyl-N-((4-(4-(cyclopropylamino)quinazolin-6-yl)pyridin-2-yl)methyl)benzole sulfonamide], for which the “% Inhibition of mGluR5 Receptor (pig)” value is 78%.
Take `COCC(=O)N(Cc1cccc(-c2cc3c(NC4CC4)ncnc3cc2C)c1)C1CC1` [Example 797, N-cyclopropyl-N-(3-(4-(cyclopropylamino)-7-methylquinazolin-6-yl)benzyl)-2-methoxyacetamide]: the inhibition at 10 µM came to 85%.
Consider `O=S(=O)(c1ccccc1)N(Cc1cc(-c2ccc3ncnc(NC4CC4)c3c2)ccc1Cl)C1CC1` [Example 799, N-(2-chloro-5-(4-(cyclopropylamino)quinazolin-6-yl)benzyl)-N-cyclopropyl benzole sulfonamide], for which the “% Inhibition of mGluR5 Receptor (pig)” value turned out to be 92%.
As to `O=C(c1ccc(C(F)(F)F)cc1F)N(Cc1cc(-c2ccc3ncnc(NC4CC4)c3c2)ccc1Cl)C1CC1` [Example 800, N-(2-chloro-5-(4-(cyclopropylamino)quinazolin-6-yl)benzyl)-N-cyclopropyl-2-fluoro-4-(trifluoromethyl)benzamide], the inhibition at 10 µM stood at 91%.
The same measure, in the same setting: under `COCC(=O)N(Cc1cc(-c2ccc3ncnc(NC4CC4)c3c2)ccc1Cl)C1CC1` [Example 801, N-(2-chloro-5-(4-(cyclopropylamino)quinazolin-6-yl)benzyl)-N-cyclopropyl-2-methoxyacetamide] stands 88%.
Turning to `O=S(=O)(c1c(F)c(F)c(F)c(F)c1F)N(Cc1cc(-c2ccc3ncnc(NC4CC4)c3c2)ccc1Cl)C1CC1` [Example 802, N-(2-chloro-5-(4-(cyclopropylamino)quinazolin-6-yl)benzyl)-N-cyclopropyl-2,3,4,5,6-pentafluorobenzole sulfonamide], the “% Inhibition of mGluR5 Receptor (pig)” value came out at 97%.
`O=C(c1c(F)c(F)c(F)c(F)c1F)N(Cc1cc(-c2ccc3ncnc(NC4CC4)c3c2)ccn1)C1CC1` [Example 803, N-cyclopropyl-N-((4-(4-(cyclopropylamino)quinazolin-6-yl)pyridin-2-yl)methyl)-2,3,4,5,6-pentafluorobenzamide]: the inhibition at 10 µM turned out to be 93%.
Consider `CC(C)S(=O)(=O)N(Cc1cc(-c2ccc3ncnc(NC4CC4)c3c2)ccn1)C1CC1` [Example 804, N-cyclopropyl-N-((4-(4-(cyclopropylamino)quinazolin-6-yl)pyridin-2-yl)methyl)propane-2-sulfonamide], for which the inhibition at 10 µM turned out to be 83%.
Still for that read-out and setting: under `O=S(=O)(Cc1ccccc1)N(Cc1cc(-c2ccc3ncnc(NC4CC4)c3c2)ccn1)C1CC1` [Example 805, N-cyclopropyl-N-((4-(4-(cyclopropylamino)quinazolin-6-yl)pyridin-2-yl)methyl)-1-phenylmethane sulfonamide] stands 92%.
For the molecule `COc1ccc(S(=O)(=O)N(Cc2cc(-c3ccc4ncnc(NC5CC5)c4c3)ccn2)C2CC2)cc1` [Example 806, N-cyclopropyl-N-((4-(4-(cyclopropylamino)quinazolin-6-yl)pyridin-2-yl)methyl)-4-methoxybenzole sulfonamide], the “% Inhibition of mGluR5 Receptor (pig)” value is on record as 89%.
On the same count and under the same terms, in the case of `CC(C)(C)Nc1ncnc2ccc(-c3ccc(F)c(CN(C(=O)c4ccco4)C4CC4)c3)cc12` [Example 807, N-(5-(4-(tert-butylamino)quinazolin-6-yl)-2-fluorobenzyl)-N-cyclopropyl furan-2-carboxamide] it was 90%.
With `CC(C)(C)Nc1ncnc2ccc(-c3ccc(F)c(CN(C(=O)c4cccc(C(F)(F)F)c4)C4CC4)c3)cc12` [Example 808, N-(5-(4-(tert-butylamino)quinazolin-6-yl)-2-fluorobenzyl)-N-cyclopropyl-3-(trifluoromethyl)benzamide], the inhibition at 10 µM was 81%.
Consider `CC(C)(C)Nc1ncnc2ccc(-c3ccc(F)c(CN(C(=O)C4CCCCC4)C4CC4)c3)cc12` [Example 809, N-(5-(4-(tert-butylamino)quinazolin-6-yl)-2-fluorobenzyl)-N-cyclopropyl cyclohexane carboxamide], for which the “% Inhibition of mGluR5 Receptor (pig)” value turned out to be 48%.
Still for that read-out and setting: under `CC(C)(C)Nc1ncnc2ccc(-c3ccc(F)c(CN(C4CC4)S(=O)(=O)c4cccs4)c3)cc12` [Example 810, N-(5-(4-(tert-butylamino)quinazolin-6-yl)-2-fluorobenzyl)-N-cyclopropyl thiophene-2-sulfonamide] stands 45%.
`O=C(c1cccs1)N(Cc1cc(-c2ccc3ncnc(NC4CC4)c3c2)ccn1)C1CC1` [Example 811, N-cyclopropyl-N-((4-(4-(cyclopropylamino)quinazolin-6-yl)pyridin-2-yl)methyl)thiophene-2-carboxamide]: the inhibition at 10 µM amounted to 71%.
Still for that read-out and setting: in the case of `O=S(=O)(c1cccc2cccnc12)N(Cc1cc(-c2ccc3ncnc(NC4CC4)c3c2)ccn1)C1CC1` [Example 812, N-cyclopropyl-N-((4-(4-(cyclopropylamino)quinazolin-6-yl)pyridin-2-yl)methyl)quinoline-8-sulfonamide] it was 73%; in that of `O=C(c1ccccc1)N(Cc1cc(-c2ccc3ncnc(NC4CC4)c3c2)ccn1)C1CC1` [Example 813, N-cyclopropyl-N-((4-(4-(cyclopropylamino)quinazolin-6-yl)pyridin-2-yl)methyl)benzamide], 73%.
On the same count and under the same terms, in the case of `CC(C)(C)Nc1ncnc2ccc(-c3ccc(F)c(CN(C(=O)c4ccccc4C(F)(F)F)C4CC4)c3)cc12` [Example 814, N-(5-(4-(tert-butylamino)quinazolin-6-yl)-2-fluorobenzyl)-N-cyclopropyl-2-(trifluoromethyl)benzamide] it was 89%; in that of `CC(C)(C)Nc1ncnc2ccc(-c3ccc(F)c(CN(C(=O)Cc4ccccc4)C4CC4)c3)cc12` [Example 815, N-(5-(4-(tert-butylamino)quinazolin-6-yl)-2-fluorobenzyl)-N-cyclopropyl-2-phenylacetamide], 87%; in that of `O=C(c1ccc(F)cc1F)N(Cc1cc(-c2ccc3ncnc(NC4CC4)c3c2)ccn1)C1CC1` [Example 817, N-cyclopropyl-N-((4-(4-(cyclopropylamino)quinazolin-6-yl)pyridin-2-yl)methyl)-2,4-difluorobenzamide], 71%.
Consider `CC(C)S(=O)(=O)N(Cc1cccc(-c2ccc3ncnc(NCCc4ccccc4)c3c2)c1)C1CC1` [Example 818, N-cyclopropyl-N-(3-(4-(phenethylamino)quinazolin-6-yl)benzyl)propane-2-sulfonamide], for which the inhibition at 10 µM stood at 34%.
`CC(C)(C)Nc1ncnc2ccc(-c3ccc(F)c(CN(C(=O)c4cccs4)C4CC4)c3)cc12` [Example 819, N-(5-(4-(tert-butylamino)quinazolin-6-yl)-2-fluorobenzyl)-N-cyclopropyl thiophene-2-carboxamide]: the “% Inhibition of mGluR5 Receptor (pig)” value was determined as 88%.
Regarding `CC(C)(C)Nc1ncnc2ccc(-c3ccc(F)c(CN(C(=O)c4cc(Cl)cc(Cl)c4)C4CC4)c3)cc12` [Example 820, N-(5-(4-(tert-butylamino)quinazolin-6-yl)-2-fluorobenzyl)-3,5-dichloro-N-cyclopropyl benzamide], the “% Inhibition of mGluR5 Receptor (pig)” value came to 48%.
Still for that read-out and setting: under `CC(C)(C)Nc1ncnc2ccc(-c3ccc(F)c(CN(C(=O)CCc4ccccc4)C4CC4)c3)cc12` [Example 821, N-(5-(4-(tert-butylamino)quinazolin-6-yl)-2-fluorobenzyl)-N-cyclopropyl-3-phenyl propanamide] stands 84%; under `CC(C)S(=O)(=O)N(Cc1cc(-c2ccc3ncnc(NC(C)(C)C)c3c2)ccc1F)C1CC1` [Example 822, N-(5-(4-(tert-butylamino)quinazolin-6-yl)-2-fluorobenzyl)-N-cyclopropyl propane-2-sulfonamide], 86%.
`O=C(c1ccncc1)N(Cc1cc(-c2ccc3ncnc(NC4CC4)c3c2)ccn1)C1CC1` [Example 823, N-cyclopropyl-N-((4-(4-(cyclopropylamino)quinazolin-6-yl)pyridin-2-yl)methyl)isonicotinamide]: the inhibition at 10 µM turned out to be 62%.
Still for that read-out and setting: in the case of `CC(C)S(=O)(=O)N(Cc1cccc(-c2cc(F)c3ncnc(NC4CC4)c3c2)c1)C1CC1` [Example 824, N-cyclopropyl-N-(3-(4-(cyclopropylamino)-8-fluoroquinazolin-6-yl)benzyl)propane-2-sulfonamide] it was 71%.
